Test results as given in paper PMC8840742 (Molecules, 2022).

Legend:
[1] = system: SARS-CoV-2 B.1.1.7 (UK or Alpha variant); assay: microbe, parasite or virus in culture; type: cell-based; settings: Severe acute respiratory syndrome coronavirus 2, Vero C1008; VeroE6 cells in presence of P-gp inhibitor
[2] = system: SARS-CoV-2 B.1.617.2 (Indian or Delta variant); assay: microbe, parasite or virus in culture; type: cell-based; settings: Severe acute respiratory syndrome coronavirus 2, Vero C1008; VeroE6 cells in presence of P-gp inhibitor

SMILES: c1ccc(CCN2CCC(Oc3ccccc3-c3nc(-c4ccncc4)no3)C2)cc1 (centres unmarked) [Compound 1, 5-(2-((1-Phenethylpyrrolidin-3-yl)oxy)phenyl)-3-(pyridin-4-yl)-1,2,4-oxadiazole]
- EC50 [1]: 3 ± 1 µM
- EC50 [2]: 4 ± 2 µM
